The values that follow come from patent publication US20190046446A1, “APO-E MODIFIED LIPID NANOPARTICLES FOR DRUG DELIVERY TO TARGETED TISSUES AND THERAPEUTIC METHODS” (Eriochem USA, LLC, priority 2016, published 2019).

Data set [1] deals with VERO (monkey kidney epithelial cells). The data set is described as follows: In vitro cytotoxicity assay (MTS), VERO. The class given is cell-based.
Data set [2] in a line: Pharmacokinetics of Docetaxel in plasma of rabbits. The class given is in vivo, New Zealand rabbits. To be noted: iv, 2.5 mg/kg DCX; for half-life: New Zealand, rabbit, 2.5 mg/kg. As to the method:
Changes in plasma drug concentration reflect changes in drug concentrations at the receptor site, as well as in other tissues.
The formulations were administered intravenously at doses equivalent to 2.5 mg/kg of DCX in each. […] Blood samples were taken at 0.5, 2, 8, and 24 hours from each animal in Groups A and C, and at 1, 4, 12, and 32 hours for each animal in Groups B and D. Then, the samples were pre-treated for analysis—the proteins were precipitated with acetonitrile and then extracted with a solid phase (SPE), evaporated, and resuspended for analysis. […] Any adjustment of the experimental data was performed by weighted nonlinear regression of at least squares using a bi-exponential descriptive model.
For this study, kd and kel were interpreted as the first order apparent distribution and elimination constants, respectively, and C1 and C2 were the coefficients of the adjustment model.
From the estimated values of C1, kd, C2, and kel, the following pharmacokinetic parameters were calculated, as shown in Table 10 below.
Clearance (CI) refers to the volume of blood that has completely cleared of the drug/unit time when it passes through a clearing organ.

A short description of data set [3]: Liver accumulation of Docetaxel in rabbits. The class given is in vivo. The note with it: iv, 2.5 mg/kg DCX. How it is done:
In measuring the liver accumulation, the animals were randomly divided into four groups following the above plasma assay. The groups were as follows:
The livers of the rabbits were totally removed at 24 hours and 36 hours, then weighed, frozen and stored at […]. The rabbit liver samples were precipitated with acetonitrile, followed by solid phase extraction (SPE), evaporation and resuspension of the resulting extract in a solvent and then analyzed by injection into LC ESI MS/MS. The determinations were performed by liquid chromatography and mass spectrometry (using a Shimadzu UFLC XR liquid chromatograph coupled to a AB Sciex 3200 QTrap mass spectrometer).
Values are Media±SEM. (N=5).

Data set [4] can be described thus: In vitro drug release by dialysis against human plasma. The class given is in vitro ADME. The note with it: dialysis against 10% human plasma, 37° C., up to 72 hours. How it is done: Drug release kinetics were evaluated in vitro by comparing solutions containing:
The respective solution samples were placed in 12 KDa dialysis bags and dialyzed against a 10% V/V solution of human plasma for 72 hours at 37° C. in an orbital shaker with constant agitation at 60 rpm. Assays were then performed in triplicate, with samples taken from each solution at 0, 1, 2, 3, 6, 9, 24, 48, and 72 hours after dialysis initiation. […] The recovered organic phase was dried in a rotary evaporator, and the obtained dry material was resuspended in acetonitrile for further HPLC analysis.

The conditions of data set [5]: in vivo; cited from earlier work.

The IC50 is the concentration that inhibits the measured activity by half.

Structures are written as SMILES. Values joined by “and” are separate entries in the source; they are usually repeats but may differ in a detail not shown here. Equal entries are not always repeated. Where two headings read alike, the source gives them in different places.

As for `CC(=O)O[C@@]12CO[C@@H]1C[C@H](O)[C@@]1(C)C(=O)[C@H](O)C3=C(C)[C@@H](OC(=O)[C@H](O)[C@@H](NC(=O)OC(C)(C)C)c4ccccc4)C[C@@](O)([C@@H](OC(=O)c4ccccc4)[C@H]21)C3(C)C` [TAXOTERE, Docetaxel], the IC50 is 145 nM and 140 nM and 150 nM in data set [1] (Normal Serum, 48 hours, listed as DCX, read-out: IC50 in VERO, individual tests); 136 nM in data set [1] (Primates, Vero, 48 h, Normal Serum, 48 hours, read-out: IC50 in VERO, individual tests); 138 nM in data set [1] (Primates, Vero, 48 h, Serum Free of Lipoprotein, 48 hours, read-out: IC50 in VERO, individual tests); 129 nM in data set [1] (Primates, Vero, LP-FREE SERUM, Table 18, read-out: IC50 Normal Cell (Vero)); 143 nM in data set [1] (Primates, Vero, NORMAL SERUM, Table 18, read-out: IC50 Normal Cell (Vero)); 143 ± 2.9 nM in data set [1] (Primates, Vero, Normal Serum, average of tests, read-out: IC50 in VERO). Besides, the IC50 in data set [1] (Primates, Vero, Serum Free of Lipoprotein, average of tests, read-out: IC50 in VERO) was 129 ± 8.06 nM; in data set [1] (Serum Free of Lipoprotein, 48 hours, listed as DCX, read-out: IC50 in VERO, individual tests), 106 nM (2×) and 140 nM and 153 nM and 152 nM and 111 nM. For the same compound, the results for the half-life in data set [2] (read-out: t1/2e1: Elimination half-life (converted)) and in data set [2] (read-out: t1/2d: Distribution half-life (converted)) were 19.7 h and 0.54 h, respectively. For the same compound, the “ABC0-∞: Area under the curve from time zero to infinity” value in data set [2] was found to be 1152.0 ng·h/mL. In addition, the “ABCex: Percentage of area under the curve extrapolated to infinity” value in data set [2] is listed as 26.0%. Moreover, the “ABCtz-∞: Area under the curve from the last sampling time to infinity” value in data set [2] came out at 299.0 ng·h/mL. In addition, the “C1: Coefficient of the first exponential term” value in data set [2] turned out to be 295.1 ng/mL. The “C2: Coefficient of the second exponential term” value in data set [2] stood at 32.5 ng/mL. Besides, the “Cz: Coefficient of last exponential term” value in data set [2] stood at 10.52 ng/mL. For the same compound, in data set [2], the “kd: first order apparent distribution constant” value amounted to 0.000356 s⁻¹. For the same compound, in data set [2], the “ke1: first order apparent elimination constant” value is 0.035 h⁻¹. The “DCX Concentration in Liver” value amounted to 446 ± 66 in data set [3] (24 hours) and 495 ± 126 in data set [3] (36 hours). For the same compound, the “Docetaxel release, comparison between solutions” value in data set [4] is “released more decetaxel than the lipid nanoparticles”. For the same compound, the “incidence of reactions of unpredictable acute toxicity” value in data set [5] is reported as 5-60%.
